Experimental findings from ChEMBL document CHEMBL1201862, “PubChem BioAssay data set” (2004) are described below.

What all share (assay): NCI-60 cell line screen, 48 h
Experiment [1] has as its system MDA-MB-435.
For experiment [2], the system named is RXF 393.
Experiment [3] deals with MOLT-4.
In experiment [4] the test system is OVCAR-5.
The test system of experiment [5] is SK-OV-3.
Experiment [6] relates to DU-145.
Experiment [7] concerns UACC-62.
Experiment [8] has as its system MCF7.
Experiment [9] concerns NCI-H226.
The test system of experiment [10] is A498.
Experiment [11] concerns NCI-H23.
In experiment [12] the test system is SNB-19.
In experiment [13] the test system is NCI/ADR-RES.
Experiment [14] concerns HCC 2998.
In experiment [15] the test system is COLO 205.
In experiment [16] the test system is SNB-75.
For experiment [17], the system named is U-251.
Experiment [18] relates to SF-268.
Experiment [19] relates to LOX IMVI.
Experiment [20] deals with EKVX.

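These data come from cells grown in 96-well plates and exposed to compound for 48 hours at five concentrations. At the GI50, growth is halved.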 Activity calls are given as the source filed them. Cut-off read from the data, not from the text of the source: active = GI50 up to about 1.1 µM and inactive = higher.

In the case of `CC(=O)O[C@H]1CC[C@H]2[C@@H]3CC[C@H]4Nc5c(cnn5S(C)(=O)=O)C[C@]4(C)[C@H]3CC[C@]12C`, the GI50 in [1] is > 100 µM (inactive); in experiment [2], > 100 µM (inactive); in [3], 47.9 µM (inactive); in [4] it was > 100 µM (inactive); in experiment [5], 77.6 µM (inactive); in experiment [6], > 100 µM (inactive). The GI50 is 33.7 µM (inactive) in experiment [7]; 28.6 µM (inactive) in experiment [8]; 53.5 µM (inactive) in experiment [9]; > 100 µM (inactive) in [10]; > 100 µM (inactive) in [11]; 36.7 µM (inactive) in experiment [12]. Besides, the GI50 in experiment [13] is 87.1 µM (inactive); in experiment [14] it was 56.4 µM (inactive); in experiment [15], > 100 µM (inactive); in experiment [16], 37.2 µM (inactive); in [17], 53.1 µM (inactive).
As for `COc1cc2c(cc1OC)C(=O)/C(=C/c1cc(OC)c(OC)c(OC)c1)C2`, the GI50 in experiment [1], in [2], in [3], in experiment [4], in experiment [5] and in [6] was > 100 µM (inactive) in each case. The GI50 in experiment [7], in [8], in [9], in experiment [10], in experiment [11] and in experiment [12] was > 100 µM (inactive) each time. Besides, the GI50 in experiment [13] is 23.7 µM (inactive); in [15] it was > 100 µM (inactive); in [16], > 100 µM (inactive); in [17] it was > 100 µM (inactive).
With `O=C1CN2C(Cl)(Cl)C2(c2ccccc2)c2cc(Cl)ccc2N1CC(F)(F)F` (configuration not stated), the GI50 in experiment [18] is 38.4 µM (inactive); in experiment [2], 21.9 µM (inactive); in [3] it was 19.1 µM (inactive); in experiment [4], 56.1 µM (inactive); in experiment [5], 51.2 µM (inactive); in experiment [7], 56.1 µM (inactive). For the same compound, the GI50 in [9] is 26.2 µM (inactive); in [11] it was 26.2 µM (inactive); in experiment [19], 17.5 µM (inactive); in [14] it was 16.6 µM (inactive); in experiment [20], 32.2 µM (inactive); in experiment [15], 19.5 µM (inactive). Also, the GI50 was 13 µM (inactive) in experiment [16] and 18.8 µM (inactive) in [17].
On to `CC(C)C(/C=C/c1ccc(Cl)cc1)=N\NC(=O)N/N=C(/C=C/c1ccc(Cl)cc1)C(C)C`, for which the GI50 in [18] is 20 µM (inactive); in experiment [1], 30.1 µM (inactive); in [2], 20.7 µM (inactive); in experiment [3], 48.8 µM (inactive); in [4], > 100 µM (inactive); in experiment [5] it was 32.4 µM (inactive). Moreover, the GI50 in [6] is > 100 µM (inactive); in experiment [7] it was 35.5 µM (inactive); in [8] it was > 100 µM (inactive); in [9], 30.8 µM (inactive); in [10], 18.1 µM (inactive); in experiment [11] it was 21.9 µM (inactive). Also, the GI50 in experiment [12] was 19.8 µM (inactive); in experiment [13], 26.7 µM (inactive); in experiment [19] it was > 10 µM (inactive); in experiment [14], 83.4 µM (inactive); in experiment [20], 21.4 µM (inactive); in experiment [15] it was 45.3 µM (inactive). In addition, the GI50 in experiment [16] is 21.7 µM (inactive); in [17], 16.9 µM (inactive).
For `CC12CCC([C@H](Nc3cc(C(F)(F)F)cc(C(F)(F)F)c3)C1=O)C2(C)C` (some centres not stated), the GI50 in [18] is > 100 µM (inactive); in experiment [1], > 100 µM (inactive); in [2], 0.0162 µM (active); in [3] it was > 100 µM (inactive); in [4], > 100 µM (inactive); in [5] it was > 100 µM (inactive). In addition, the GI50 in [6], in experiment [9], in experiment [11], in experiment [12], in [13] and in [19] was > 100 µM (inactive) throughout. In addition, the GI50 in experiment [14], in experiment [20] and in experiment [15] was > 100 µM (inactive) each time.
For the compound `O=S1(=O)C[C@@H](NCc2ccccc2)[C@H](NCc2ccccc2)C1`, the GI50 in experiment [18], in experiment [1], in [2], in [3], in [4] and in experiment [5] was > 100 µM (inactive) in each case. Moreover, the GI50 in experiment [6], in experiment [7], in experiment [8], in experiment [9], in experiment [11] and in experiment [12] was > 100 µM (inactive) throughout. Further, the GI50 in [13], in experiment [19], in [14], in [20], in experiment [15] and in [16] was > 100 µM (inactive) each time. Further, in experiment [17], the GI50 was > 100 µM (inactive).
As to `CN1C2CCC1C(CO)C(=O)C2` (configuration not stated), the GI50 in experiment [18] was > 100 µM (inactive); in experiment [1] it was > 100 µM (inactive); in experiment [2] it was 57.4 µM (inactive); in experiment [3], 18.2 µM (inactive); in experiment [5] it was > 100 µM (inactive); in [6], > 100 µM (inactive). For the same compound, the GI50 is > 100 µM (inactive) in experiment [7]; 22.6 µM (inactive) in experiment [8]; > 100 µM (inactive) in experiment [9]; > 100 µM (inactive) in experiment [10]; > 100 µM (inactive) in [11]; > 100 µM (inactive) in experiment [13]. The GI50 in experiment [19] was > 100 µM (inactive); in experiment [14], > 100 µM (inactive); in experiment [15], 17.6 µM (inactive); in experiment [16] it was > 100 µM (inactive); in [17], > 100 µM (inactive).
In the case of `CN1C2CC(=O)CC1[C@H](O)[C@@H]2O`, the GI50 in experiment [18], in experiment [1], in [2], in [3], in experiment [6] and in experiment [8] was > 100 µM (inactive) each time. In addition, the GI50 in [9], in [11], in experiment [12], in [13], in experiment [19] and in [14] was > 100 µM (inactive) throughout. Also, the GI50 in experiment [20], in experiment [15] and in experiment [17] was > 100 µM (inactive) in each case.
For the compound `CC1OC1C(=O)C1(O)C(C)C(O)C23OC2(C(O)c2c(O)cccc2C3=O)C1O` (configuration not stated) [CERVICARCIN], the GI50 in experiment [18] was 0.0984 µM (active); in experiment [2], 0.191 µM (active); in experiment [3], 0.0415 µM (active); in experiment [4], 0.31 µM (active); in experiment [5], 0.111 µM (active); in experiment [7] it was 0.245 µM (active). Besides, the GI50 is 0.228 µM (active) in experiment [8]; 0.31 µM (active) in [9]; 0.352 µM (active) in [10]; 0.0938 µM (active) in experiment [11]; 0.153 µM (active) in [12]; 0.207 µM (active) in experiment [13]. The GI50 was 0.2 µM (active) in experiment [19]; 0.1 µM (active) in experiment [14]; 0.0908 µM (active) in [20]; 0.0706 µM (active) in experiment [15]; 0.212 µM (active) in experiment [16]; 0.232 µM (active) in [17].
Turning to `COc1ccc2c3c1O[C@H]1C[C@@H](O)C=C[C@@]31CCN(C)C2` [GALANTAMINE], the GI50 in experiment [18] was 87.7 µM (inactive); in experiment [2], > 150 µM (inactive); in experiment [3] it was > 150 µM (inactive); in experiment [4], > 150 µM (inactive); in [5], > 150 µM (inactive); in [7], > 150 µM (inactive). Moreover, the GI50 in [8] is > 36 µM (inactive); in experiment [9] it was > 150 µM (inactive); in [10], > 150 µM (inactive); in experiment [11], > 150 µM (inactive); in experiment [12] it was > 150 µM (inactive); in [13], > 150 µM (inactive). The GI50 in experiment [19], in experiment [14], in experiment [20], in [15], in [16] and in experiment [17] was > 150 µM (inactive) in each case.
As to `O=c1cc[nH]c(=O)[nH]1` [URACIL], the GI50 in experiment [18] is 578 µM (inactive); in [2], 316 µM (inactive); in [3] it was 550 µM (inactive); in experiment [4], > 746 µM (inactive); in experiment [5], 813 µM (inactive); in [7], 330 µM (inactive). For the same compound, the GI50 in [8] was 398 µM (inactive); in experiment [9] it was 329 µM (inactive); in [10] it was 6.82 µM (inactive); in experiment [11], 147 µM (inactive); in experiment [12] it was 431 µM (inactive); in experiment [13], > 562 µM (inactive). Besides, the GI50 is 375 µM (inactive) in [19]; 322 µM (inactive) in experiment [14]; 294 µM (inactive) in experiment [20]; 187 µM (inactive) in experiment [15]; 350 µM (inactive) in experiment [16]; 370 µM (inactive) in experiment [17].
